Where a name gives a salt, the structure may show the parent alone.
Tests used:
CXCR4 [1] = assay: CXCL12-driven calcium flux in 697 cells; format: cell-based; conditions: 1 µM, 10 min pre-treatment, 100 ng/mL human CXCL12; n = 3
Method: Ca^2+ signaling was analyzed as described previously. Briefly, SupB15 and 697 cells were collected at 1 × 10^6 cells/treatment and loaded with calcium-sensitive dye Indo-1 AM (#I1223, Invitrogen) and 0.5 mg/mL of pluronic F-127 (#P3000MP, Invitrogen) in their respective media supplemented with 1% FBS at 37 °C for 45 min. Cells were then washed and treated with the inhibitors for 10 min at 37 °C. Baseline signal for calcium was measured for 30 s via flow cytometry, followed by stimulation with 100 ng/mL human CXCL12. The area under the curve (AUC) of each calcium flux plot was determined using FlowJo. The AUC of the water control (solvent for CXCL12) was subtracted from each treatment to obtain the correct estimation of the calcium signal upon CXCL12 stimulation.

caspase 8 = assay: Caspase-Glo 8 activation assay in BCR–ABL1 cells; format: cell-based, mouse; conditions: 10 µM; n = 3
Method: (§1) BCR–ABL1 cells were plated at 0.5 × 10^5 cells/well of a 96-well plate in 100 μL of complete media and treated with DMSO or various inhibitors. At specific time points (24, 48 and 72 h), activation of caspases was measured with a Caspase-Glo® 3/7 Assay (#G8090) and Caspase-Glo® 8 Assay (#G8200, Promega, Madison, WI, USA) following the manufacturer’s instructions.

SupB15 cells = assay: Flow cytometric cell survival analysis, SupB15; format: cell-based, human; conditions: for SupB15 cell survival vs DMSO: 10 µM, 24–96 h, n = 3; for Dead gate (viability dye) / Live gate (viability dye): JM#170 10 µM, representative histogram of n = 3
Method: (§2) Cells treated with either solvent control DMSO or different concentrations of inhibitors for different time points were collected and washed with ice-cold PBS. […] After washing, labeled cells were resuspended in 100 μL of PBS and acquired using LSR-Fortessa (BD Bioscience, Heidelberg, Germany). FACS data were analyzed with FlowJo software version 10.0.

CXCR4 [2] = assay: Anti-CXCR4 antibody (clone 12G5) competition assay in SupB15 cells; format: binding, human; conditions: increasing concentrations (1 nM to 10 µM), n = 2–3
Method: (§3) An anti-CXCR4 competition assay was conducted as previously described. […] Afterward, the cells were washed to remove unbound inhibitors and antibody, and measured via FACS for the fluorescence signal of the bound antibody. The fluorescence signal corresponding to only antibody (no inhibitor) was considered to be 100% antibody binding.

caspase 3/7 = assay: Caspase-Glo 3/7 activation assay in BCR–ABL1 cells; format: cell-based, mouse; conditions: 10 µM, 24 and 48 h; n = 3
Method: as §1

[3] = tested on: BCR–ABL1-transformed mouse B cells; assay: Flow cytometric viability analysis (viability dye); format: cell-based; set-up: Live gate (viability dye) / Dead gate (viability dye): unit not given here; conditions: for Cell viability of BCR–ABL1 cells: 1–72 h, live cell count normalized to DMSO; for Dead gate (viability dye) / Live gate (viability dye): JM#170 10 µM, representative histogram of n = 3
Method: as §2

[4] = tested on: AKT phosphorylation (PI3K signaling downstream of CXCR4); assay: Western blot, AKT S473 phosphorylation in BCR–ABL1 cells; format: cell-based; conditions: 10 µM, 100 ng/mL mouse CXCL12, 5 min; n = 3
Method: (§4) BCR–ABL1 cells were collected as 5 × 10^6 cells/500 μL complete media and treated either with DMSO or different inhibitors in the absence and presence of 100 ng/mL mouse CXCL12 for 5, 15, and 30 min at 37 °C. Cells were then immediately transferred onto ice to stop the reaction and washed with ice-cold PBS. Cell extract was prepared by resuspending the cell pellet in 100 μL of radio-immunoprecipitation assay (RIPA) buffer supplemented with 1X protease inhibitor cocktail (#78429, Thermo Fisher), 1 mM sodium orthovanadate (Sigma-Aldrich), and 10 mM beta-glycerophosphate (Sigma-Aldrich). For each treatment, 15 μL of cell extract was mixed with 5 μL of 4X Laemmli buffer (reducing), boiled at 95 °C for 10 min, and run on 10% SDS-PAGE. Gels were wet-transferred to PVDF membranes (Millipore, Burlington, MA, USA) and stained with 0.1% ponceau-S solution to check for efficient blotting. The membranes were blocked with 3% BSA solution and incubated with primary antibodies at 4 °C overnight. The next day, primary antibodies were washed, and membranes were probed with horseradish peroxidase (HRP)-conjugated secondary antibodies at RT for 2 h. After washing, the blots were developed using Immobilon ECL Ultra Western HRP Substrate (#WBULS0500, Millipore), and images were acquired with a Fusion SL gel imaging system (Vilber Lourmat, Eberhardzell, Germany). […]

CXCR4 [5] = conditions: ref [14],[17]; cited from earlier work
[6] = tested on: ERK1/2 phosphorylation downstream of CXCR4; assay: Western blot, ERK1/2 T202/Y204 phosphorylation in BCR–ABL1 cells; format: cell-based; conditions: 10 µM, 100 ng/mL mouse CXCL12, 5 min; n = 3
Method: as §4

[7] = tested on: pro/anti-apoptotic genes (Jun, Bax, Bim, Bcl2, Bcl-xl, FasL); assay: Real-time gene expression analysis (Taqman) in BCR–ABL1 cells; format: cell-based, mouse; conditions: 10 µM, n = 3
Method: BCR–ABL1 cells were plated at 1 × 10^6 cells/well of a 12-well plate in 1 mL of complete media and treated with DMSO or various inhibitors. After specific time points (24 and 48 h), RNA was isolated from cells using a ReliaPrep Cell RNA miniprep kit (#Z6011, Promega). Fifty nanograms of total RNA was reverse-transcribed using a high-capacity RNA to cDNA kit (#4387406, Thermo Fisher), and gene expression was measured via Taqman assay using Taqman Gene expression master mix (#4369016, Thermo Fisher) following ghd manufacturer’s protocol. The following Taqman probes were used: Jun (Mm07296811_s1), Bax (Mm00432051_m1), Bim (Mm00437796_m1), Bcl2 (Mm00477631_m1), Bcl-xl (00437783_m1), FasL (Mm00438864_m1), and beta actin (04394036_g1).

CXCR4 [8] = assay: Anti-CXCR4 antibody (clone L276F12) competition assay in BCR–ABL1-transformed mouse B cells; format: binding; conditions: 2 h at 4 °C, FACS, n = 3; for Anti-CXCR4 antibody binding to CXCR4: serially diluted 10 µM to 1 nM
Method: as §3

[9] = tested on: BCR–ABL1-transformed mouse B cells; assay: Real-time cell growth analysis by IncuCyte (GFP+ cell enrichment); format: cell-based; conditions: over 96 h
Method: A flat-bottom 96-well plate was coated with 0.01% poly-L ornithine (#P4957, Sigma-Aldrich, Hamburg, Germany) for 1 h at room temperature (RT). […] The cells were plated in 100 μL complete medium. […] Plate was prewarmed at 37 °C for 30 min prior to placing in the IncuCyte chamber. Scanning was conducted every two hours for total of 4 days.

c1cc(CN2CCCNCCNCCCNCC2)ccc1CN1CCCNCCNCCCNCC1 [AMD3100, AMD3100 octahydrochloride hydrate, reference compound]
CXCL12-induced calcium flux, 697 (CXCR4 [1]): completely blocked the calcium flux | Caspase 8 activation vs DMSO (caspase 8): neither JM#170 nor AMD3100 induced caspase 8 | SupB15 cell survival vs DMSO (SupB15 cells): no effect on SupB15 cell survival | 12G5 antibody binding to CXCR4 (CXCR4 [2]): significantly inhibited 12G5 binding | Caspase 3/7 activation vs DMSO (caspase 3/7): did not induce any caspase activation | Cell viability of BCR–ABL1 cells ([3]; 10 µM, n = 3): did not induce any loss of cell viability | CXCL12-induced AKT S473 phosphorylation [4]: this elevation was blocked | CXCL12-induced calcium signaling (CXCR4 [5]): block the intracellular calcium response | CXCL12-induced ERK1/2 T202/Y204 phosphorylation [6]: this elevation was blocked | Pro/anti-apoptotic gene expression ([7]; 24 and 48 h): did not upregulate any gene expression | Concentration effective in inhibiting antibody binding to CXCR4 (CXCR4 [8]): ~ 1 μM | Anti-CXCR4 antibody binding to CXCR4 (CXCR4 [8]): significantly inhibited the antibody binding | GFP enrichment (BCR–ABL1 cell growth) vs DMSO ([9]; 5 µM): also detectable | GFP enrichment (BCR–ABL1 cell growth) vs DMSO ([9]; 10 µM, mean ± SEM, n = 4–5): only distinct at later time points

ILRWSRK * (Pal)-NH2 [JM#170, lipid-conjugated truncated version of EPI-X4, CXCR4 antagonist]
CXCL12-induced calcium flux, 697 (CXCR4 [1]): completely blocked the calcium flux | Caspase 8 activation vs DMSO (caspase 8): neither JM#170 nor AMD3100 induced caspase 8 | SupB15 cell survival vs DMSO (SupB15 cells): significantly reduced SupB15 cell survival | Dead gate (viability dye) (SupB15 cells; 24 h): 19.0 | Live gate (viability dye) (SupB15 cells; 24 h): 81.0 | Dead gate (viability dye) (SupB15 cells; 72 h): 33.3 | Live gate (viability dye) (SupB15 cells; 72 h): 66.7 | Dead gate (viability dye) (SupB15 cells; 96 h): 41.7 | Live gate (viability dye) (SupB15 cells; 96 h): 58.3 | 12G5 antibody binding to CXCR4 (CXCR4 [2]): significantly inhibited 12G5 binding | Caspase 3/7 activation vs DMSO (caspase 3/7): significant increase in caspase 3/7 activation | Cell viability of BCR–ABL1 cells ([3]; 10 µM, n = 3): strong and rapid cell death | Cells dying ([3]; 10 µM, within 1 h of treatment, n = 3): ~ 70% | Dead gate (viability dye) ([3]; 1 h): 64.5 | Live gate (viability dye) ([3]; 1 h): 35.5 | Dead gate (viability dye) ([3]; 24 h): 85.0 | Live gate (viability dye) ([3]; 24 h): 15.0 | Dead gate (viability dye) ([3]; 48 h): 76.4 | Live gate (viability dye) ([3]; 48 h): 23.6 | Dead gate (viability dye) ([3]; 72 h): 63.6 | Live gate (viability dye) ([3]; 72 h): 36.4 | CXCL12-induced AKT S473 phosphorylation [4]: this elevation was blocked | CXCL12-induced calcium signaling (CXCR4 [5]): block CXCL12-induced calcium signaling | CXCL12-induced ERK1/2 T202/Y204 phosphorylation [6]: this elevation was blocked | Bax gene expression ([7]; 24 h): mildly upregulated | Bcl2 gene expression ([7]; 24 h): significant increase | Bcl-xl gene expression ([7]; 24 h): not altered at all | Bim gene expression ([7]; 24 h): significantly elevated | Jun gene expression ([7]; 24 h): significantly elevated | Bax, Bim and Bcl2 gene expression ([7]; 48 h): still significantly elevated levels | FasL gene expression [7]: inactivation of FasL | Concentration effective in inhibiting antibody binding to CXCR4 (CXCR4 [8]): ~ 10 nM | Anti-CXCR4 antibody binding to CXCR4 (CXCR4 [8]): significantly inhibited the antibody binding | GFP enrichment (BCR–ABL1 cell growth) vs DMSO ([9]; 10 µM, mean ± SEM, n = 4–5): significant reduction in GFP enrichment

Source: PMC11312813, “An Optimized Peptide Antagonist of CXCR4 Limits Survival of BCR–ABL1-Transformed Cells in Philadelphia-Chromosome-Positive B-Cell Acute Lymphoblastic Leukemia” (International Journal of Molecular Sciences, 2024)
